Measurements published in PubChem BioAssay (NCI).
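In this assay, cells in 96-well plates receive the compound at five concentrations for 48 hours. Endpoints are linearly interpolated between the surrounding concentrations. TGI marks complete inhibition of growth.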

Tests used:
Test in all cases: DTP human tumour cell line panel, 48 h
[1] = tested on: 786-0 renal
[2] = tested on: A498 renal
[3] = tested on: A549 NSCLC
[4] = tested on: ACHN renal
[5] = tested on: BT-549 breast
[6] = tested on: CAKI-1 renal
[7] = tested on: CCRF-CEM leukemia
[8] = tested on: COLO 205 colon
[9] = tested on: EKVX NSCLC
[10] = tested on: HCC-2998 colon
[11] = tested on: HCT-116 colon
[12] = tested on: HCT-15 colon
[13] = tested on: HL-60(TB) leukemia
[14] = tested on: HOP-62 NSCLC
[15] = tested on: HOP-92 NSCLC
[16] = tested on: HS 578T breast
[17] = tested on: HT29 colon
[18] = tested on: IGROV1 ovarian
[19] = tested on: K-562 leukemia
[20] = tested on: KM12 colon
[21] = tested on: LOX IMVI melanoma
[22] = tested on: M14 melanoma
[23] = tested on: MALME-3M melanoma
[24] = tested on: MCF7 breast
[25] = tested on: MDA-MB-435
[26] = tested on: MDA-N
[27] = tested on: MOLT-4 leukemia
[28] = tested on: NCI-H460 lung
[29] = tested on: NCI-H522 lung
[30] = tested on: NCI/ADR-RES ovarian
[31] = tested on: OVCAR-3 ovarian
[32] = tested on: OVCAR-4 ovarian
[33] = tested on: OVCAR-5 ovarian
[34] = tested on: OVCAR-8 ovarian
[35] = tested on: PC-3 prostate
[36] = tested on: RPMI-8226 leukemia
[37] = tested on: SF-268 CNS
[38] = tested on: SF-295 CNS
[39] = tested on: SK-MEL-2 melanoma
[40] = tested on: SK-MEL-28 melanoma
[41] = tested on: SK-MEL-5 melanoma
[42] = tested on: SK-OV-3 ovarian
[43] = tested on: SN12C renal
[44] = tested on: SNB-19 CNS
[45] = tested on: SR leukemia
[46] = tested on: SW-620 colon
[47] = tested on: T-47D breast
[48] = tested on: U251 CNS
[49] = tested on: UACC-257 melanoma
[50] = tested on: UACC-62 melanoma
[51] = tested on: UO-31 renal
[52] = tested on: DU-145 prostate
[53] = tested on: MDA-MB-231 breast
[54] = tested on: NCI-H226 lung
[55] = tested on: NCI-H23 lung
[56] = tested on: RXF 393 renal
[57] = tested on: SF-539 CNS
[58] = tested on: TK-10 renal
[59] = tested on: SNB-75 CNS

Measured: TGI

O=[N+]([O-])c1ccc(SN=S=NSc2cccc(SN=S=NSc3ccc([N+](=O)[O-])cc3)c2)cc1
40.6 µM: [5]
74.3 µM: [33]
42.5 µM: [7]
53.4 µM: [34]
57.8 µM: [12]
60.3 µM: [46]
75 µM: [24]
38.9 µM: [47]
29.2 µM: [43]
34.3 µM: [29]
70.2 µM: [51]
40.1 µM: [35]
41.1 µM: [6]
98.8 µM: [26]
35.5 µM: [21]
83.7 µM: [13]
34.1 µM: [39]
71.2 µM: [25]
32 µM: [48]
27.2 µM: [1]
not listed: [52] | [53] | [54] | [55] | [56] | [57] | [58] | [59]
> 100 µM: all other assays above

CSc1nc(=S)[nH]c2c1c(C)nn2-c1ccccc1
27.8 µM: [41]
69.8 µM: [51]
52.7 µM: [43]
40.6 µM: [52]
45.3 µM: [27]
49 µM: [7]
35.7 µM: [15]
40.9 µM: [32]
46.6 µM: [9]
64.9 µM: [53]
56.5 µM: [8]
58.9 µM: [28]
68.3 µM: [35]
42.8 µM: [45]
46.1 µM: [24]
80.6 µM: [2]
62.5 µM: [47]
51.9 µM: [19] | [49]
65.4 µM: [29]
43.2 µM: [11]
41.5 µM: [23]
35.3 µM: [50]
90.3 µM: [42]
45.8 µM: [55]
84.4 µM: [38]
57.5 µM: [4]
40.3 µM: [6]
94.1 µM: [56]
47.7 µM: [36]
98.2 µM: [57]
88.1 µM: [1]
51.2 µM: [54]
68.5 µM: [39]
not listed: [18] | [20] | [30] | [34] | [59]
> 100 µM: all other assays above

Cc1ccccc1N=Nc1c(O)ccc2ccccc12
not listed: [2] | [10] | [24] | [28] | [45] | [57]
> 100 µM: all other assays above

O=C(Nc1ccc([N+](=O)[O-])cc1)Nn1cnnc1
72.8 µM: [31]
2.31 µM: [54]
73.9 µM: [57]
48.8 µM: [55]
69.7 µM: [5]
63.4 µM: [38]
67 µM: [34]
93.2 µM: [16]
72.6 µM: [20]
43.2 µM: [32]
80 µM: [23]
not listed: [1] | [30] | [43] | [53] | [56]
> 100 µM: all other assays above
